Our source for the refractive index values is the NIST ThermoML archive (doi:10.1016/j.jct.2011.06.009).

± gives the expanded uncertainty stated by the source.

This series is described as follows: refractive index (Na D-line) (dimensionless). The following applies: 101.33 kPa, Liquid, Standard Abbe refractometry.

In the case of `CCCCc1ccccc1` [butylbenzene], under “293.1 K”, the refractive index amounted to 1.4895 ± 0.0008.
As to `CCCC[n+]1ccc(C)cc1.F[B-](F)(F)F` [1-butyl-4-methylpyridinium tetrafluoroborate], the refractive index (298.1 K) came out at 1.4509 ± 0.0008.
Turning to `CCCc1ccccc1` [propylbenzene], the refractive index (293.1 K) stood at 1.4915 ± 0.0008.
Same read-out and setting: under `CCCCCCCCCCCC` [dodecane] stands 1.422 ± 0.0008.
